Molecules are shown by their SMILES. Where “and” joins values, the source holds several entries; their conditions need not be identical. Identical values can stand only once.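 Compound exposure: 48 hours, 5 concentrations, 96-well plates. GI50: concentration for 50% inhibition of growth. TGI marks complete inhibition of growth.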 Some results are limits rather than exact numbers.

Among the test systems are DMS 114 small cell lung; DMS 273 small cell lung; LXFL 529 NSCLC; SNB-78 CNS; XF 498 CNS; DLD-1 colon; HOP-18 NSCLC; RXF-631 renal; P388 leukemia; P388/ADR leukemia; SN12K1 renal.
Holding throughout (test): NCI tumour cell line growth inhibition, 48 h

Consider `O=C1NC2(C=Cc3c(ccc4ccccc34)O2)Oc2ccccc21` (stereo not given), for which the TGI in the assay with DMS 114 small cell lung was 51 µM; in the assay with DMS 273 small cell lung, 76.1 µM; with LXFL 529 NSCLC, 56.4 µM; with SNB-78 CNS it was 94.1 µM; in the assay on XF 498 CNS, greater than 100 µM.

In the case of `COC[C@@H](Cc1ccc(OC)c(OC)c1)[C@@H](COC)Cc1ccc(OC)c(OC)c1`, the TGI with DLD-1 colon, with DMS 114 small cell lung, in the assay with DMS 273 small cell lung, with HOP-18 NSCLC, in the assay with LXFL 529 NSCLC and in the assay on SNB-78 CNS was greater than 100 µM each time. The TGI with XF 498 CNS was greater than 100 µM.

For `CC(C)N(C(C)C)P(OCCC#N)OC1CC(n2cnc3c(=O)[nH]cnc32)OC1COC(=O)NCCCCCCNC(=O)OC(C)(C)c1ccc(-c2ccccc2)cc1` (stereo not given), the TGI is greater than 100 µM in the assay with DLD-1 colon; 41.6 µM with DMS 114 small cell lung; 32.1 µM in the assay on DMS 273 small cell lung; greater than 100 µM in the assay on HOP-18 NSCLC; 32.5 µM in the assay on LXFL 529 NSCLC; greater than 100 µM in the assay on SNB-78 CNS.

Regarding `COC(=O)C1C2CC3C(OC(=O)C31)C2OC(=O)[C@](OC)(c1ccccc1)C(F)(F)F` (stereo not given in full), the TGI with DLD-1 colon, in the assay with DMS 114 small cell lung, in the assay on DMS 273 small cell lung, with LXFL 529 NSCLC, in the assay on RXF-631 renal and in the assay on SNB-78 CNS was greater than 100 µM each time. This molecule also yielded a TGI in the assay with XF 498 CNS greater than 100 µM.

In the case of `CCN(CC)CCNc1ccc2ncn3c4cc(=O)ccc4c(O)c1c23`, the TGI in the assay with DLD-1 colon worked out at 17 µM; with DMS 114 small cell lung, 18.1 µM; with DMS 273 small cell lung, 13.2 µM; in the assay with LXFL 529 NSCLC, 20.5 µM; with RXF-631 renal it was 12.5 µM; with SNB-78 CNS, 25.4 µM. This molecule returned a TGI in the assay with XF 498 CNS of 12.8 µM.

For `CC(=O)C1(O)Cc2c(O)c3c(c(O)c2C(OC2CC(N)C(O)C(C)O2)C1)C(=O)c1ccccc1C3=O` (stereo not given), the TGI was 0.498 µM with DLD-1 colon; less than 0.0108 µM in the assay on DMS 273 small cell lung; 0.0869 µM with HOP-18 NSCLC; 0.25 µM in the assay on LXFL 529 NSCLC; 0.592 µM in the assay with SNB-78 CNS; 0.181 µM in the assay with XF 498 CNS.

As to `c1ccc(C2[C@@H]3CCCc4ccccc4C3=NN2c2ccccc2)cc1` (stereo not given in full), the TGI with DLD-1 colon, in the assay with DMS 114 small cell lung, in the assay on LXFL 529 NSCLC, with SNB-78 CNS and in the assay with XF 498 CNS was greater than 100 µM each time.

Turning to `CCCCCCCCCCSCC(CO)NC(=O)/C=C/c1c(C)[nH]c(=O)[nH]c1=O` (stereo not given), the TGI in the assay on DLD-1 colon is greater than 50 µM; with DMS 114 small cell lung, 5.93 µM and 4.33 µM; with DMS 273 small cell lung, greater than 50 µM; in the assay with HOP-18 NSCLC it was greater than 50 µM; in the assay on P388 leukemia it was 7.15 µM and 6.31 µM; with P388/ADR leukemia, greater than 50 µM. Further, the TGI was > 35.6 µM and 19.9 µM in the assay on SN12K1 renal; greater than 31.6 µM with SNB-78 CNS; 2.19 µM and 3.61 µM with XF 498 CNS. The GI50 is 1.97 µM and 4.58 µM in the assay with DMS 273 small cell lung; 2.91 µM and > 26.8 µM in the assay on HOP-18 NSCLC.

On to `COc1ccc(C2C(Cl)C(=O)N2NC(=O)Cc2ccccc2)cc1OC` (stereo not given), for which the TGI in the assay with DLD-1 colon, with DMS 114 small cell lung, with DMS 273 small cell lung, with HOP-18 NSCLC, with SNB-78 CNS and in the assay with XF 498 CNS was greater than 100 µM in each case.

As to `O=C1C[C@H](c2ccc(O)c(O)c2)Oc2cc(O)cc(O)c21`, the TGI in the assay with DLD-1 colon, in the assay on DMS 114 small cell lung, in the assay on DMS 273 small cell lung, in the assay on HOP-18 NSCLC, with LXFL 529 NSCLC and in the assay on RXF-631 renal was greater than 100 µM in each case. In the assay with SNB-78 CNS, the TGI was greater than 100 µM.

Take `CC(=O)n1ccc2c(Cl)ncnc21`: the TGI in the assay on DLD-1 colon, with DMS 114 small cell lung, with DMS 273 small cell lung, in the assay with HOP-18 NSCLC, in the assay on LXFL 529 NSCLC and in the assay on RXF-631 renal was greater than 100 µM in each case. Moreover, in the assay with SNB-78 CNS, the TGI is greater than 100 µM.

On to `c1ccc(CCn2cncn2)cc1`, for which the TGI in the assay on DLD-1 colon, with DMS 114 small cell lung, with DMS 273 small cell lung, with LXFL 529 NSCLC, in the assay with RXF-631 renal and in the assay on SNB-78 CNS was greater than 100 µM throughout.

The values are drawn from PubChem BioAssay (NCI).
